Read-outs that look alike come from different tables or passages of the source.
Legend:
[1] = test system: Clostridium beijerinckii ATCC 10132; conditions: butanol 1.5% to 3.5%, 37° C., 144 h
Procedure: The tolerance was tested in both, the un-optimized AnS medium and optimized AnS medium. The bottles were inoculated with Clostridium beijerinckii ATCC 10132 After inoculation, the medium was incubated at 37° C. for 144 h and the OD at 600 nm was monitored at a regular interval of 12 h.

biological systems = conditions: Jones and Wood, 1986; cited from earlier work

In the case of CCCCO [butanol, n-butanol], the “butanol concentration tolerated (growth, OD 600 nm)” value ([1]; optimized AnS medium) is listed as at most 3.5%, the “butanol concentration tolerated (growth, OD 600 nm)” value ([1]; un-optimized AnS medium) is listed as “up to 3.0%” and the “concentration at which butanol is highly toxic to biological systems” value (biological systems) is listed as 2%.
